Test results from article PMC12305494, “Discovery of PXR Antagonist MI891 and PXR Degrader MI1013 and Their Roles in Hepatic Gene Regulation” (Journal of Medicinal Chemistry, 2025).

Columns and labels:
PXR [1] = target: T1, PXR (Homo sapiens, UniProt O75469); assay: cell-based; conditions: PXR antagonism: PXR inhibition (IC50, μM), antagonist mode with 10 μM rifampicin; mean ± SD, n = 3
T1 sequence (O75469 1-434): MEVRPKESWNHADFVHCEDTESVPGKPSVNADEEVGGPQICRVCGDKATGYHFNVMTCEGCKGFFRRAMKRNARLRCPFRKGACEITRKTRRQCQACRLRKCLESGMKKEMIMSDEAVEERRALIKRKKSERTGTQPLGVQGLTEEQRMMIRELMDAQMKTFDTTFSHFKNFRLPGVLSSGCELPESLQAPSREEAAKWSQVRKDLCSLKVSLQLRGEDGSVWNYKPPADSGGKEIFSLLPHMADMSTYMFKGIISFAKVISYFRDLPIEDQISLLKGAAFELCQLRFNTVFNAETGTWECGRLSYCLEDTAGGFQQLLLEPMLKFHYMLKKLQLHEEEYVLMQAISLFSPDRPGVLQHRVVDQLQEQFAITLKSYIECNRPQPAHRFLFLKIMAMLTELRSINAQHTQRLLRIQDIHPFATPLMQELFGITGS
Method: The PXR activity was assessed as the PXR-dependent transcriptional activation using the construct. […] The control vector pRL-TK (Promega) constitutively expresses Renilla luciferase. […] Transient transfection experiments followed published protocols used in our laboratory and described before. , Luciferase reporter assays were conducted to evaluate interactions with PXR or CAR and their variants in HepG2, or COS-1. Cells were seeded at a density of 40,000 cells/cm^2 in 48-well plates (ThermoFisher Scientific) and maintained at 37 °C in a humidified atmosphere with 5% CO2. […] Following seeding, HepG2 cells were transfected with 150 ng/well of a luciferase reporter construct and 100 ng/well of a nuclear receptor expression vector using Lipofectamine 3000 (ThermoFisher Scientific) and with pRL-TK (30 ng/well) serving as the normalization control. After 24 h, cells were treated with test compounds for 24 h before cell lysis and subsequent firefly and Renilla luciferase activity analysis using the Dual-Glo Luciferase Assay System (Promega). […] The activities of test compounds were normalized to the respective controls to determine % activation or inhibition.

human CAR LBD [2] = target: T2, human CAR LBD (Homo sapiens, UniProt Q14994); assay: LanthaScreen TR-FRET CAR Coactivator assay; assay type: biochemical; conditions: nb = no binding
T2 sequence (Q14994 103-352): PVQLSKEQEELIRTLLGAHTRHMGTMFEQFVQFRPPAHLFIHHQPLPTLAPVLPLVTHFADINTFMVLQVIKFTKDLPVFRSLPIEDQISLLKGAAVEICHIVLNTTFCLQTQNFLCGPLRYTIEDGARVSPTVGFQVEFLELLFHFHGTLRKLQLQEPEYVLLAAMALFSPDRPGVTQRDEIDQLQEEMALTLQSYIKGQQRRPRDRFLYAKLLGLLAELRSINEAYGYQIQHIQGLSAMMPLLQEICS
Method: We utilized the LanthaScreen TR-FRET CAR Coactivator Binding Assay Kit, goat (Thermo Fisher Scientific, Cat. No. PV4836), which includes GST-tagged human CAR LBD and a fluorescein-labeled PGC1α coactivator peptide. The assay was performed with slight modifications to the manufacturer’s protocol, as previously reported. […] The interaction with the PXR ligand-binding domain (LBD) was assessed using the LanthaScreen TR-FRET PXR Competitive Binding Assay (Thermo Fisher Scientific, PV4839), as previously described. This assay quantifies the ability of test compounds to displace a fluorescent PXR ligand from the receptor. Fluorescence readings were taken on a Synergy 2 Multi-Mode Microplate Reader (BioTek, Winooski, VT). The half-maximal inhibitory concentration (IC50) for PXR LBD was calculated from at least eight data points using GraphPad Prism software.

human CAR LBD [3] = target: T3, human CAR LBD (Homo sapiens, UniProt Q14994); assay: CAR LBD assembly assay (CAR AA); assay type: cell-based; conditions: na = no activity; tox = cytotoxicity in HepG2 cells
T3 construct: constructs encoding helices 3–12 and helix 1 of human CAR LBD; expressed in transfected cells; host or cells: HepG2
T3 sequence (Q14994 103-150 isoform Q14994-2 limits assumed): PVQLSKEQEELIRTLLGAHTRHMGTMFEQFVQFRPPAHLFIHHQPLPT
T3 sequence (Q14994 151-348 isoform Q14994-2 limits assumed): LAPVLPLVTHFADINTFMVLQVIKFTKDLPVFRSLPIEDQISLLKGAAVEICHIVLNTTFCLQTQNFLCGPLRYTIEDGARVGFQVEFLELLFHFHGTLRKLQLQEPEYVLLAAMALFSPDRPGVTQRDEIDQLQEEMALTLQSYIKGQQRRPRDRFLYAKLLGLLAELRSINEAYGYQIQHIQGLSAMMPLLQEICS
From the text: The CAR LBD assembly assay used constructs encoding helices 3–12 and helix 1 of human CAR LBD as described before. GL4.31[luc2P/GAL4UAS/Hygro] (pGAL4 UAS-luc) luciferase reporter vector and pRL-TK Renilla expression vector (Promega) were used in the assay in HepG2 cells transfected using Lipofectamine 3000.

PXR [4] = target: T1, PXR; assay: PXR-responsive CYP3A4 promoter luciferase reporter assay in HepG2, inverse agonist mode (basal activity); assay type: cell-based; design: expressed in transfected cells; host or cells: HepG2; conditions: tested at 10 μM, DMSO (0.1%) = 100% basal activity
Method: Rhesus monkey, mouse, and rat PXR expression vectors (100 ng/well each) were also obtained from GenScript. […] Carlberg (University of Kuopio, Kuopio, Finland).
The cells were cultured in DMEM medium (Merck) supplemented with 10% fetal bovine serum.

PXR [5] = target: T4, PXR (Homo sapiens, UniProt O75469+Q96SW2); assay: Western blot of PXR in differentiated HepaRG cells; assay type: cell-based; conditions: 24 h
T4 construct: differentiated hepatic HepaRG cells, which naturally express high PXR activity and expression; endogenous in cells; host or cells: differentiated HepaRG
Method: The harvested HepaRG cells were lysed in RIPA lysis buffer (Cat. no 89900, Thermo Scientific) containing Halt protease inhibitor cocktail inhibitors (Thermo Scientific). Protein concentration was measured using the Pierce BCA Protein Assay Kit (Cat. no. 23225, Thermo Scientific), samples were diluted in 4 × Laemmli sample buffer (Cat. no. 1610747, BioRad) supplemented with mercaptoethanol and heated at 95 °C for 5 min. Equal amounts of protein were loaded in 4–20% Mini-PROTEAN TGX Stain-Free Protein Gels (12 well. cat. no. 4561095 or 15 well, cat. no. 4568096, Bio-Rad), electrophorised, and transferred onto Trans-Blot Turbo Midi-size PVDF Membrane (cat. no. 1704273, Bio-Rad), and blocked with EveryBlot Blocking buffer for 10 min (cat. no. 12010020, Bio-Rad). The membranes were incubated overnight at 4 °C with the following antibodies: PXR polyclonal antibody (1:500, PA5–41170, Invitrogen), RXRA polyclonal antibody (1:1000, 21218–1-AP, Proteintech), and GSPT1 polyclonal antibody (1:1000, 10763-a-AP, Proteintech), washed with TBS-T for 3 times, and followed by incubation with goat antirabbit IgG (H + L) Secondary antibody, HRP (1:200, 000, 1 h, cat. no. 31460, Invitrogen). Chemiluminescence signals were detected using SuperSignal West Femto Maximum Sensitivity Substrate (cat. no. 34096, Thermo Scientific) and visualized by the ChemiDoc MP Imaging system (Universal Hood III, #731BR02821, Bio-Rad), and the bands were quantified using β-actin (1:2000, recombinant rabbit conjugated monoclonal antibody (JF53-10), cat. no. MA5-32540, Invitrogen) as loading control with ImageJ (version 1.54g) software.

[6] = Plasma stability, mouse plasma; assay type: in vitro ADME; conditions: up to 120 min, read-out: Plasma stability, t1/2 (min), mouse
Method: The protocols and reagents for the plasma protein binding assay and metabolic stability testing in human and mouse liver microsomes are detailed in our previous report. Briefly, metabolic stability of compounds was assessed at a single concentration (5 μM) at t = 0, 10, 30, and at t = 45 min. The stability of compounds was tested in human and mouse microsomes (ThermoFisher Scientific). Compounds were tested in triplicate with or without NADPH wells as a negative control for cytochrome P450 metabolism. In addition to hepatic metabolism, compounds were also subjected to degradation/modification by enzymes in human (VWR International) and mouse (Biomedica, CZ) plasma for t = 0, 30, 60, and at t = 120 min. Each assay included a substrate with known activity as a positive control. Time points were analyzed by LC/MS/MS. The peak area for the parent compound is compared to the time zero sample in order to assess the amount of remaining compound.

T4 sequence (Q96SW2 whole entry, one chain of several): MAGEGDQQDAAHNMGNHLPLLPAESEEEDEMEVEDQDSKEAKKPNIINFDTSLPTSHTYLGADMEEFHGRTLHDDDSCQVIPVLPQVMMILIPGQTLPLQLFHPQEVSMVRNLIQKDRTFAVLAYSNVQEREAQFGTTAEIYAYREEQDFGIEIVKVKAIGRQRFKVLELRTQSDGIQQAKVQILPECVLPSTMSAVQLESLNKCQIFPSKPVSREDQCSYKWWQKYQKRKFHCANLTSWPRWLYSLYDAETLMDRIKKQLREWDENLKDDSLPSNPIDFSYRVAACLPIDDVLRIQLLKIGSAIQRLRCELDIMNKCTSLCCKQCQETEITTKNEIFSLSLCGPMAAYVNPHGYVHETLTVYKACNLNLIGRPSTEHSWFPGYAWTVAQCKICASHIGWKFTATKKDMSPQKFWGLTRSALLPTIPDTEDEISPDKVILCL

IC50 (PXR [1]) | Molecule | EC50 (human CAR LBD [3]) | also measured
25.4 ± 3.5 µM | CC(c1ccc(Cl)c(C(N)=O)c1)n1cc(-c2c(-c3ccc(Cl)cc3)nc3ccccn23)nn1 (centres unmarked) [Compound 2, 2-Chloro-5-(1-(4-(2-(4-chlorophenyl)imidazo[1,2-a]pyridin-3-yl)-1H-1,2,3-triazol-1-yl)ethyl)benzamide] | 5.3 ± 0.3 µM | EC50 (human CAR LBD [2]): > 5 µM
> 100 µM | NC(=O)c1cc(Cn2cc(-c3c(-c4ccncc4)nc4ccccn34)nn2)ccc1Cl [Compound 3, 2-Chloro-5-((4-(2-(pyridine-4-yl)imidazo[1,2-a]pyridine-3-yl)-1H-1,2,3-triazol-1-yl)methyl)benzamide] | – | CAR TR-FRET (EC50, μM) (human CAR LBD [2]): nb
5.76 ± 2.6 µM | NC(=O)c1cc(Cn2cc(-c3c(-c4ccc(C5CC5)cc4)nc4ccccn34)nn2)ccc1Cl [Compound 4, 2-Chloro-5-((4-(2-(4-cyclopropylphenyl)imidazo[1,2-a]pyridin-3-yl)-1H-1,2,3-triazol-1-yl)methyl)benzamide] | > 20 µM | CAR TR-FRET (EC50, μM) (human CAR LBD [2]): nb
> 100 µM | CNC(=O)c1cc(Cc2nnc(-c3c(-c4ccc(Cl)cc4)nc4ccccn34)o2)ccc1Cl [Compound 5, 2-Chloro-5-((5-(2-(4-chlorophenyl)imidazo[1,2-a]pyridin-3-yl)-1,3,4-oxadiazol-2-yl)methyl)-N-methylbenzamide] | 1.02 ± 0.2 µM | EC50 (human CAR LBD [2]): 0.401 µM
> 100 µM | CNC(=S)c1cc(Cc2nnc(-c3c(-c4ccc(Cl)cc4)nc4ccccn34)o2)ccc1Cl [Compound 6, 2-Chloro-5-((5-(2-(4-chlorophenyl)imidazo[1,2-a]pyridin-3-yl)-1,3,4-oxadiazol-2-yl)methyl)-N-methylbenzothioamide] | 0.99 ± 0.15 µM | EC50 (human CAR LBD [2]): 0.162 µM
4.94 ± 0.9 µM | CN(C)C(=O)c1cc(Cc2nnc(-c3c(-c4ccc(Cl)cc4)nc4ccccn34)s2)ccc1Cl [Compound 7, 2-Chloro-5-((5-(2-(4-chlorophenyl)imidazo[1,2-a]pyridin-3-yl)-1,3,4-thiadiazol-2-yl)methyl)-N,N-dimethylbenzamide] | 0.5 ± 0.01 µM | –
– | NC(=O)c1cc(Cn2cc(-c3c(-c4ccc(Cl)cc4)nc4cc(F)ccn34)nn2)ccc1Cl [Compound 9, 2-Chloro-5-((4-(2-(4-chlorophenyl)-7-fluoroimidazo[1,2-a]pyridin-3-yl)-1H-1,2,3-triazol-1-yl)methyl)benzamide] | – | PXR inverse agonism: decrease of basal activity in % (PXR [4]): (-72.03±0.3) %; PXR inverse agonism: decrease of basal activity in % (PXR [4]; listed as 9 (MI-883)): –72.03 ± 0.3%
8.04 ± 2.3 µM | CNC(=O)c1cc(Cn2cc(-c3c(-c4ccc(Cl)cc4)nc4c(F)cc(F)cn34)nn2)ccc1Cl [Compound 12, 2-Chloro-5-((4-(2-(4-chlorophenyl)-6,8-difluoroimidazo[1,2-a]pyridin-3-yl)-1H-1,2,3-triazol-1-yl)methyl)-N-methylbenzamide] | – | CAR TR-FRET (EC50, μM) (human CAR LBD [2]): nb
– | COc1ccc(OC)c(-n2nnc(S(=O)(=O)c3ccc(NC(=O)CCOCCOCCOCCOCCn4cc(CNc5cccc6c5C(=O)N(C5CCC(=O)NC5=O)C6=O)nn4)cc3)c2C)c1 (centres unmarked) [Compound 37, N-(4-((1-(2,5-dimethoxyphenyl)-5-methyl-1H-1,2,3-triazol-4-yl)sulfonyl)phenyl)-1-(4-(((2-(2,6-dioxopiperidin-3-yl)-1,3-dioxoisoindolin-4-yl)amino)methyl)-1H-1,2,3-triazol-1-yl)-3,6,9,12-tetraoxapentadecan-15-amide] | – | PXR degradation (Western blot) (PXR [5]): mild effect on PXR degradation
– | CC(C)[N+](C)(CCOC(=O)C1c2ccccc2Oc2ccccc21)C(C)C [Propantheline, reference compound] | – | half-life [6]: 28 ± 1 min
– | N-(4-((1-(2,5-Dimethoxyphenyl)-5-methyl-1H-1,2,3-triazol-4-yl)sulfonyl)phenyl)-3-(2-(2-(4-(((2-(2,6-dioxopiperidin-3-yl)-1,3-dioxoisoindolin-4-yl)amino)methyl)-1H-1,2,3-triazol-1-yl)ethoxy)ethoxy)propenamide [Compound 35] | – | PXR degradation (Western blot) (PXR [5]): no effect on PXR degradation
